Results from patent US20240279227A1, “FUSED HETEROCYCLIC DERIVATIVES” (Janssen Sciences Ireland Unlimited Company, priority 2021, published 2024).

What was measured:
HBV = assay: Anti-HBV activity in HepG2.117 cell line (intracellular HBV DNA, real-time PCR); assay type: cell-based, hepatitis B virus; settings: HepG2.117 cells, HBV replication induced, 3 days of treatment, intracellular HBV DNA by real-time PCR
Protocol: The anti HBV activity was measured using the HepG2.117 cell line, a stable, inducibly HBV producing cell line, which replicates HBV in the absence of doxycycline (Tet-off system). The HepG2 cell line is available from ATCCR under number HB-8065. Transfection of the HepG2 cell line can be as described in Sun and Nassal 2006 Journal of Hepatology 45 (2006) 636-645 “Stable HepG2-and Huh7-based human hepatoma cell lines for efficient regulated expression of infectious hepatitis B virus”.
For the antiviral assay, HBV replication was induced, followed by a treatment with serially diluted compound in 96-well plates. After 3 days of treatment, the antiviral activity was determined by quantification of intracellular HBV DNA using real-time PCR and an HBV specific primer set and probe.

[1] = Human liver microsome stability; assay type: in vitro ADME; settings: human, pooled human liver microsomes, pH 7.4, pooled human liver microsomes 0.5 mg/mL, 1 μM compound, NADPH 1 mM, pH 7.4, 37° C., 0-60 min; read-out: HLM Metabolism t1/2
Protocol: Pooled human liver microsomes (0.5 mg/mL) was pre-incubated with 1 μM test compounds or control compounds (verapamil, warfarin and cerivastatin) in 0.1 M phosphate buffer pH 7.4 containing 1 mM MgCl2 at 37° C. The final concentration of DMSO and acetonitrile are 0.05% and 0.2%, respectively. All incubations are performed singularly for each compound. NADPH was added to initiate the reaction with the final concentration of 1 mM and the final incubation volume of 400 μL.
At 6 time points (0, 5, 10, 20, 40 and 60 min) reactions were stopped by the removal of 50 μL of the incubation mixture into plates containing acetonitrile at a of 1:3 (v:v). The plates were centrifuged at 3000 rpm for 10 min at 4° C. to precipitate the protein. Following protein precipitation, the sample supernatants were combined in cassettes of up to 8 compounds. The internal standard was added (1:1 supernatant to internal standard solution) and samples were analyzed using standard LC-MS conditions.
From a plot of ln peak area ratio (compound peak area/internal standard peak area) against time, the gradient of the line is determined. Subsequently, half-life is calculated using the equations below: […]

[2] = Cytotoxicity, ATPlite Luminescence Assay; assay type: cell-based, human; settings: human, HepG2 or HepG2.117 cells, 3-days incubation unless marked with *, ATPlite viability
Protocol: Cytotoxicity of the compounds was tested using HepG2 or HepG2.117 cells, incubated for 3 or 4 days in the presence of compounds. The viability of the cells was assessed using the PERKIN ELMER ATPlite Luminescence Assay System.”

[3] = Hepatitis B virus, HepG2.117, 72 h

Molecule `CNC(=O)[C@@H]1CN([C@@H](C)c2ccc(C(F)(F)F)nc2)C(=O)c2c3c(nn21)C[C@@H](C)N(C(=O)c1ccc(Cl)c(Cl)c1)C3` [Compound 13B, (3R,7S)-2-(3,4-dichlorobenzoyl)-N,3-dimethyl-10-oxo-9-((S)-1-(6-(trifluoromethyl)pyridin-3-yl)ethyl)-1,2,3,4,7,8,9,10-octahydropyrido[4′,3′:3,4]pyrazolo[1,5-a]pyrazine-7-carboxamide] has an EC50 (HBV; [3]) of 0.033 µM, a half-life at 1 μM [1] of over 3 h and a CC50 [2] of 46.8 µM.
`CNC(=O)[C@@H]1CN(C(C)c2ccc(-c3nnnn3C)cc2)C(=O)c2c3c(nn21)C[C@@H](C)N(C(=O)c1ccc(Cl)c(Cl)c1)C3` (single isomer, unassigned) [Compound 29A, (3R,7S)-2-(3,4-Dichlorobenzoyl)-N,3-dimethyl-9-((R*)-1-(4-(1-methyl-1H-tetrazol-5-yl)phenyl)ethyl)-10-oxo-1,2,3,4,7,8,9,10-octahydropyrido[4′,3′:3,4]pyrazolo[1,5-a]pyrazine-7-carboxamide] gave an EC50 (HBV) of 0.82 µM, a half-life at 1 μM [1] of over 3 h and a CC50 [2] of over 50 µM.
`CNC(=O)[C@@H]1CN(C(C)c2ccc(N3CCCC3=O)nc2)C(=O)c2c3c(nn21)C[C@@H](C)N(C(=O)c1ccc(Cl)c(Cl)c1)C3` (single isomer, unassigned) [Compound 34A, (3R,7S)-2-(3,4-Dichlorobenzoyl)-N,3-dimethyl-10-oxo-9-((R*)-1-(6-(2-oxopyrrolidin-1-yl)pyridin-3-yl)ethyl)-1,2,3,4,7,8,9,10-octahydropyrido[4′,3′:3,4]pyrazolo[1,5-a]pyrazine-7-carboxamide] showed an EC50 (HBV; [3]) of 0.38 µM, a half-life at 1 μM [1] of 1.83 h and a CC50 [2] of over 50 µM.
With `CNC(=O)[C@@H]1CN([C@H](C)c2ccc(C(F)(F)F)nc2)C(=O)c2c3c(nn21)C[C@@H](C)N(C(=O)c1ccc(Cl)c(Cl)c1)C3` [Compound 13A, (3R,7S)-2-(3,4-Dichlorobenzoyl)-N,3-dimethyl-10-oxo-9-((R)-1-(6-(trifluoromethyl)pyridin-3-yl)ethyl)-1,2,3,4,7,8,9,10-octahydropyrido[4′,3′:3,4]pyrazolo[1,5-a]pyrazine-7-carboxamide] the EC50 (HBV; [3]) was 0.34 µM, the half-life at 1 μM [1] was over 3 h and the CC50 [2] was over 50 µM.
`CNC(=O)[C@@H]1CN([C@H](C)c2ccc(C(F)(F)F)nc2)C(=O)c2c3c(nn21)C[C@@H](C)N(C(=O)c1ccc(Cl)c(C(F)(F)F)c1)C3` [Compound 15A, (3R,7S)-2-(4-Chloro-3-(trifluoromethyl)benzoyl)-N,3-dimethyl-10-oxo-9-((R)-1-(6-(trifluoromethyl)pyridin-3-yl)ethyl)-1,2,3,4,7,8,9,10-octahydropyrido[4′,3′:3,4]pyrazolo[1,5-a]pyrazine-7-carboxamide] showed an EC50 (HBV; [3]) of 0.086 µM, a half-life at 1 μM [1] of over 3 h and a CC50 [2] of over 50 µM.
In the case of `CNC(=O)[C@@H]1CN(C(C)c2ccc(C(F)(F)F)nc2)C(=O)c2c3c(nn21)C[C@@H](C)N(C(=O)c1ccc(Br)c(Cl)c1)C3` (single isomer, unassigned) [Compound 10B, (3R,7S)-2-(4-bromo-3-chlorobenzoyl)-N,3-dimethyl-10-oxo-9-((S*)-1-(6-(trifluoromethyl)pyridin-3-yl)ethyl)-1,2,3,4,7,8,9,10-octahydropyrido[4′,3′:3,4]pyrazolo[1,5-a]pyrazine-7-carboxamide], the EC50 (HBV; [3]) is reported as 0.019 µM, the half-life at 1 μM [1] is reported as over 3 h and the CC50 [2] is reported as 46.8 µM.
In the case of `CNC(=O)[C@@H]1CN(C(C)c2cnc(C(F)(F)F)nc2)C(=O)c2c3c(nn21)C[C@@H](C)N(C(=O)c1ccc(Cl)c(C(F)(F)F)c1)C3` (single isomer, unassigned) [Compound 43A, (3R,7S)-2-(4-Chloro-3-(trifluoromethyl)benzoyl)-N,3-dimethyl-10-oxo-9-((R*)-1-(2-(trifluoromethyl)pyrimidin-5-yl)ethyl)-1,2,3,4,7,8,9,10-octahydropyrido[4′,3′:3,4]pyrazolo[1,5-a]pyrazine-7-carboxamide], the EC50 (HBV) is reported as 0.61 µM, the half-life at 1 μM [1] is reported as over 3 h and the CC50 [2] is reported as over 50 µM.
In the case of `CNC(=O)[C@@H]1CN(C(C)c2ccc(C(C)(C)O)nc2)C(=O)c2c3c(nn21)C[C@@H](C)N(C(=O)c1ccc(Cl)c(Cl)c1)C3` (single isomer, unassigned) [Compound 3B, (3R,7S)-2-(3,4-Dichlorobenzoyl)-9-((S*)-1-(6-(2-hydroxypropan-2-yl)pyridin-3-yl)ethyl)-N,3-dimethyl-10-oxo-1,2,3,4,7,8,9,10-octahydropyrido[4′,3′:3,4]pyrazolo[1,5-a]pyrazine-7-carboxamide], the EC50 (HBV; [3]) is reported as 0.051 µM, the half-life at 1 μM [1] is reported as over 3 h and the CC50 [2] is reported as over 50 µM.
For `CNC(=O)[C@@H]1CN([C@H](C)c2ccc(OC(F)F)cc2)C(=O)c2c3c(nn21)C[C@@H](C)N(C(=O)c1ccc(Cl)c(Cl)c1)C3` [Compound 16A, (3R,7S)-2-(3,4-dichlorobenzoyl)-9-((R)-1-(4-(difluoromethoxy)phenyl)ethyl)-N,3-dimethyl-10-oxo-1,2,3,4,7,8,9,10-octahydropyrido[4′,3′:3,4]pyrazolo[1,5-a]pyrazine-7-carboxamide], the EC50 (HBV; [3]) was 0.021 µM, the half-life at 1 μM [1] was over 3 h and the CC50 [2] was 40.4 µM.
With `CNC(=O)[C@@H]1CN(C(C)c2ccc(-c3c(C)noc3C)nc2)C(=O)c2c3c(nn21)C[C@@H](C)N(C(=O)c1ccc(Cl)c(Cl)c1)C3` (single isomer, unassigned) [Compound 35A, (3R,7S)-2-(3,4-Dichlorobenzoyl)-9-((R*)-1-(6-(3,5-dimethylisoxazol-4-yl)pyridin-3-yl)ethyl)-N,3-dimethyl-10-oxo-1,2,3,4,7,8,9,10-octahydropyrido[4′,3′:3,4]pyrazolo[1,5-a]pyrazine-7-carboxamide] the EC50 (HBV) was 0.39 µM, the half-life at 1 μM [1] was 1.16 h and the CC50 [2] was over 50 µM.
`C[C@@H]1Cc2nn3c(c2CN1C(=O)c1ccc(Cl)c(C#N)c1)C(=O)N([C@@H](C)c1ccc(OC(F)F)cc1)C[C@H]3C(=O)N(C)C` [Compound 27B, (3R,7S)-2-(4-chloro-3-cyanobenzoyl)-9-((S)-1-(4-(difluoromethoxy)phenyl)ethyl)-N,N,3-trimethyl-10-oxo-1,2,3,4,7,8,9,10-octahydropyrido[4′,3′:3,4]pyrazolo[1,5-a]pyrazine-7-carboxamide] showed an EC50 (HBV; [3]) of 0.046 µM, a half-life at 1 μM [1] of over 3 h and a CC50 [2] of over 50 µM.
Work on `CNC(=O)[C@@H]1CN(C(C)c2ccnc(C(F)(F)F)c2)C(=O)c2c3c(nn21)C[C@@H](C)N(C(=O)c1ccc(Cl)c(Cl)c1)C3` (single isomer, unassigned) [Compound 9B, (3R,7S)-2-(3,4-Dichlorobenzoyl)-N,3-dimethyl-10-oxo-9-((S*)-1-(2-(trifluoromethyl)pyridin-4-yl)ethyl)-1,2,3,4,7,8,9,10-octahydropyrido[4′,3′:3,4]pyrazolo[1,5-a]pyrazine-7-carboxamide] yielded an EC50 (HBV; [3]) of 0.061 µM, a half-life at 1 μM [1] of over 3 h and a CC50 [2] of over 50 µM.
In the case of `CNC(=O)[C@@H]1CN(C(C)c2nc(C(F)(F)F)cs2)C(=O)c2c3c(nn21)C[C@@H](C)N(C(=O)c1ccc(Cl)c(Cl)c1)C3` (single isomer, unassigned) [Compound 44A, (3R,7S)-2-(3,4-Dichlorobenzoyl)-N,3-dimethyl-10-oxo-9-((R*)-1-(4-(trifluoromethyl)thiazol-2-yl)ethyl)-1,2,3,4,7,8,9,10-octahydropyrido[4′,3′:3,4]pyrazolo[1,5-a]pyrazine-7-carboxamide], the EC50 (HBV; [3]) is reported as 0.12 µM, the half-life at 1 μM [1] is reported as over 3 h and the CC50 [2] is reported as over 50 µM.
`CNC(=O)[C@@H]1CN(C(C)c2ccc(-n3cncn3)cc2)C(=O)c2c3c(nn21)C[C@@H](C)N(C(=O)c1ccc(Cl)c(Cl)c1)C3` (single isomer, unassigned) [Compound 2A, (3R,7S)-9-((R*)-1-(4-(1H-1,2,4-triazol-1-yl)phenyl)ethyl)-2-(3,4-dichlorobenzoyl)-N,3-dimethyl-10-oxo-1,2,3,4,7,8,9,10-octahydropyrido[4′,3′:3,4]pyrazolo[1,5-a]pyrazine-7-carboxamide] gave an EC50 (HBV) of 0.042 µM, a half-life at 1 μM [1] of over 3 h and a CC50 [2] of over 50 µM.
